Assays:
GFAP, MIP1α and CD68 = experiment: qPCR of inflammatory markers in the brain; type: in vivo, mouse; conditions: day 100, once weekly dosing
Method: (§1) Vorinostat (50 mg/Kg)—Vorinostat was first dissolved in DMSO (100 mg/ml) and then diluted with 9 volume of Polyethylene Glycol 400 (PEG). This drug solution was named as ‘solution A’. Solution A was diluted with equal volume of water where the final concentration of each component was as follows; Vorinostat, 5 mg/ml; DMSO, 5% and PEG, 45%. Mice were given weekly intraperitoneal (i.p) injections starting at 21 days. Vorinostat (100 mg/Kg)—Vorinostat was first dissolved in DMSO (200 mg/ml) and then mixed with 9 volumes of PEG. Rest of the methods and injections plan were as described above. HPBCD (4000 mg/Kg)—40% HPBCD solution prepared in water. Mice were given weekly i.p injections starting at 7 days. HPBCD (2000 mg/Kg)—20% HPBCD solution prepared in water. Mice were given weekly i.p injections starting at 7 days. TCF (Vorinostat, 50 mg/Kg+HPBCD, 2000 mg/Kg, DMSO, 5%+PEG, 45%)—To prepare the formulation, the ‘solution A’ was first prepared as described above and equal volume of 40% HPBCD solution was slowly layered on top of it. The solution was gently mixed for 10 min at RT on rocker set at medium speed. […]
Quantitative PCR (qPCR) was performed using Power SYBR Green RNA-to-CT 1-Step Kit and an ABI Prism 7500 Fast real-time PCR system (Applied Biosystems, Grand Island, USA). […] The relative amount of transcript was determined using comparative CT method. […]

Npc1^nmf164 mice = experiment: Survival of drug treated NPC mice (Kaplan-Meier); type: in vivo, mouse; conditions: for median life span: males and females combined, weekly i.p., Vo 50 mg/Kg in PEG, 2×HPBCD 4000 mg/Kg, TCF (Vo 50 mg/Kg+HPBCD 2000 mg/Kg+PEG); for effect on animal survival: i.p. once weekly from day 21
From the text: The present study, inter alia, evaluated the efficacy of Vorinostat (Vo) an HDACi for the treatment of Niemann-Pick Type C disease in a mouse model. […] We hypothesized poor solubility, reduced plasma exposure and penetration across the Blood Brain Barrier (BBB) of Vo to be the possible reasons behind its ineffectiveness in the animals. To overcome these limitations, we used HPBCD as an excipient and made a formulation that contained Vo, HPBCD and polyethylene glycol (PEG) and named it Triple combination Formulation (TCF). The effect of TCF was evaluated using different molecular, biochemical, histological and neurobehavioral measures in NPC mice at indicated ages. For survival and neurobehavioral testing 8-10 mice were used in groups injected with drug. At least 6 mice were used in vehicle treated group. End point for survival studies were set at ≥30% weight loss. For molecular, biochemical, histological analyses at least 3-4 mice were used with at least two technical replicates in each assay. Animals were randomly assigned to treatment groups. Equal numbers of males and females were included in each group. Two independent PK experiments in mice were done each containing 5 mice in a group. The reliability and robustness of neurobehavioral scoring system was evaluated by two blinded investigators. Investigators were blinded to the drug injections while assessing the neurobehavioral functions. Determination of Vo in plasma samples were done by blinded investigators at the Metabolite Profiling Facility, Purdue University, IN, USA. Sample sizes were chosen based on previous experience or similar studies conducted by others. All data points were used in the statistical analyses.
Npc1^nmf164, BALB/c strain carrying an aspartate to glycine mutation at position 1005 (D1005G) in Npc1 gene was used as NPC disease model. (Maue, R. A., et al., Hum Mol Genet 21: 730-750 (2012)).When animals were sick and unable to reach the food provided on the holder, regular food (2019 Teklad diet, Harlan Laboratories, Indianapolis, Ind.) was replaced with DietGel 76A (Clear H2O, Portland, Me.). Studies with mice were performed with approval and authorization from the Institutional Animal Care and Use Committee of University of Notre Dame, Indiana, USA.
as §1, with “speed. The final concentration of each component in the formulation was as follows; Vorinsotat, 5 mg/ml; DMSO 5%; PEG, 45%; and HPBCD, 20%. Mice were given two i.p doses of HPBCD (2000 mg/Kg) at 7 and 15 days. Starting from 21 days mice were given weekly i.p injection of TCF. Vehicle control (5% DMSO and 45% PEG)—It was made by mixing 1 volume of DMSO with 9 volume of PEG and then diluted with equal volume of water. Mice were given weekly i.p injection starting from 21 days. All drug solutions were stored at −80° C. Fresh vials of frozen stock were thawed for injection on different days.” for “speed.”

[1] = cited from earlier work

SMILES	levels of inflammatory markers GFAP, MIP1α and CD68 in the brain (GFAP, MIP1α and CD68)	increase of survival relative to vorinostat in PEG (Npc1^nmf164 mice; 4000 mg/Kg weekly i.p., 180 vs 134 d)	median life span (Npc1^nmf164 mice) [days]	solubility in aqueous solution [1]	effect on animal survival (Npc1^nmf164 mice; vorinostat 50 mg/Kg in PEG)	effect on animal survival (Npc1^nmf164 mice; vorinostat 50 mg/Kg in PEG, listed as Vorinostat)	effect on animal survival (Npc1^nmf164 mice; vorinostat 100 mg/Kg in PEG)
CC(O)COC[C@H]1O[C@@H]2O[C@H]3[C@H](O)[C@@H](O)[C@@H](O[C@H]4[C@H](O)[C@@H](O)[C@@H](O[C@H]5[C@H](O)[C@@H](O)[C@@H](O[C@H]6[C@H](O)[C@@H](O)[C@@H](O[C@H]7[C@H](O)[C@@H](O)[C@@H](O[C@H]8[C@H](O)[C@@H](O)[C@@H](O[C@H]1[C@H](O)[C@H]2O)O[C@@H]8COCC(C)O)O[C@@H]7COCC(C)O)O[C@@H]6COCC(C)O)O[C@@H]5COCC(C)O)O[C@@H]4COCC(C)O)O[C@@H]3COCC(C)O (stereo partly drawn) [HPBCD, 2-Hydroxypropyl-β-cyclodextrin]	reduced their levels comparably to TCF and better than Vo	increased survival by a third	180				
O=C(CCCCCCC(=O)Nc1ccccc1)NO [vorinostat]			134	poorly soluble in aqueous solution	no significant survival benefit	no significant beneficial effect on animal survival	no survival benefit
